As usually defined, the melting point is the temperature of the solid-liquid transition.

Melting point data for 88 compounds are collected here from a melting point compilation (Tetko et al.; mined from patent text by program, amines drawn as free bases though some values may be those of a salt).

`O=C(O)c1ccc(C(=C2SCCCS2)c2ccccc2)cc1`: the melting point lay in the range of 261 to 262 °C.

The compound `COc1ccccc1CN1C(=O)C2CCCC2N(C(=O)CN2C(=O)c3ccccc3C2=O)c2ccccc21` (stereo not drawn) registered a melting point of 261 to 272 °C.

On to `Cc1nc(-n2cc(Cc3ccccc3)nn2)sc1C(=O)NCc1ccccc1`, for which the melting point was 139 to 141 °C. Consider `CCn1cc(C(=O)O)c(=O)c2cc(F)c(N3CCNC(c4c[nH]c5ccccc45)C3)cc21` (stereo not drawn), for which the melting point is 230 °C.

With `O=C1Nc2ccccc2/C1=C/c1c[nH]c2ncccc12`, the melting point is over 280 °C. On to `CN1CCC(c2c[nH]c3ccc(NC(=O)C4CCC4)nc23)CC1`, for which the melting point was determined as 104 °C. Regarding `COC(=O)C1c2ccccc2C2C(=O)NCCN21` (stereo not drawn), the melting point was in the range of 165 to 167 °C. Compound `CCCOc1ccccc1-c1nc2nc(N(CC)CC)ncc2c(=O)[nH]1` came in with a melting point of 116 to 117 °C. For `COC(=O)C(C(=O)OC)C(Cc1cc(Cl)ccc1N)c1ccc(OC)cc1` (stereo not drawn) the value was 114 to 116 °C. For the compound `Fc1ccc(C(=S)N2CCCC(c3ccc(Cl)c(Cl)c3)=N2)cc1F`, the melting point is 135 to 136 °C. In turn, `CCCCCCN(CCCCCC)CC1CCN(C(=O)Oc2ccc(Oc3ccccc3)cc2)CC1` yielded a melting point of 46 to 47 °C. Turning to `CNC(=O)[C@H]1S[C@@H](n2cnc3c(N)nc(Cl)nc32)[C@H](O)[C@@H]1O`, the melting point was in the range of 233 to 235 °C. In turn, `COc1ccc(C(=O)Nc2ccc(C)c(Cl)c2)cc1NC(=S)Nc1cc(Cl)cc(Cl)c1` gave a melting point of 195 to 196 °C. On to `Nc1nc(-n2cc(C(=O)O)c(=O)c3cc(F)c(NCC(O)CO)c(Cl)c32)c(F)cc1F` (stereo not drawn), for which the melting point lay in the range of 166 to 169 °C. Regarding `N#Cc1ccc2c(c1)C(=O)c1ccccc1CN2`, the melting point lay in the range of 235 to 236 °C. Consider `N#Cc1ccc(Oc2ccccc2Oc2ccc(C#N)cc2)cc1`, for which the melting point was 112 °C. The compound `CCC1(CCCCCBr)C(=O)Nc2ccc(C)cc21` (stereo not drawn) gave a melting point of 72 to 73 °C. For `CC(=O)C1CCCNC1=O` (stereo not drawn) the value was 101 to 103 °C; for `COC(=O)CC1Oc2ccccc2Oc2ccccc21` (stereo not drawn), 72 to 74 °C. `CCCCCCC#CC(O)C1=Nc2ccccc2C(=O)C1C` (stereo not drawn) displayed a melting point of 148 to 149 °C. For `CCOC(=O)C1=NN(c2ccc(Cl)cc2)C(c2ccc(Cl)cc2)C1` (stereo not drawn) the value was 128 to 130 °C; for `CCC(=O)Nc1cnc2ccccc2c1Cl`, 151 to 152 °C; for `Cc1cccc(-c2[nH]c(C(C)C)nc2-c2cccc(-c3ccoc3)c2)n1`, 74 to 78 °C. The compound `CN(C)c1ccccc1CS(=O)c1cnc2ccccc2n1` (stereo not drawn) had a melting point of 114 to 115 °C. `Nc1nc(-c2cc(Cl)ccc2Cl)nc(N2CCSCC2)n1` showed a melting point of 239 to 241 °C.

Compound `CN(C)C1CCN(c2cc3ccccc3c(=O)[nH]2)C1` (stereo not drawn) showed a melting point of 233 to 234 °C. In turn, `COc1cc(/C=C/c2cc(OC)c(OC)c(OC)c2)cc(OC)c1OC` yielded a melting point of 220 °C. With `Clc1ccc(CN2CCN=C2Cc2ccccc2)c(Cl)c1`, the melting point was 185 to 189 °C. Compound `CN(C)C=NS(=O)(=O)c1ccccc1-c1ccc(Cn2c(-c3ccccc3)nc(Cl)c2C=O)cc1` returned a melting point of 193 °C. `O=C1c2ccccc2C(=O)N1CCN1CCC(=C2c3ccccc3C=Cc3ccccc32)CC1` displayed a melting point of 190 °C. Compound `CC(C)(C)[Si](C)(C)N1C(=O)CC1C(=O)NC(Cc1c[nH]c2ccccc12)C(=O)OCc1ccccc1` (stereo not drawn) displayed a melting point of 60 to 65 °C. For `C[C@H]1[C@@H](C(C)(C)O)CCN1c1ccc(C#N)cc1C(F)(F)F` the value was 98 to 100 °C; for `N#Cc1c[nH]cc1-c1ccc(Cl)cc1`, 147 to 148 °C; for `O=C=Nc1cccc(-c2nc3ccccc3c(=O)o2)c1`, 115 to 121 °C. `CNC(=O)N(OC)c1ccc(Oc2ccc3sncc3c2)cc1` yielded a melting point of 108 °C.

`NC(=O)c1cc(-c2nccs2)[nH]c1C(CC1CCOCC1)c1ccc(S(=O)(=O)C2CC2)cc1` (stereo not drawn) returned a melting point of 241 to 243 °C. Consider `CC(C)(C)OC(=O)NCC(=O)OCCCNc1ccc(O)c2c1C(=O)c1c(O)cccc1C2=O`, for which the melting point is 152 °C.

`O=C(CN1CCC(Cc2ccccc2)CC1)Nc1ccc(O)cc1` returned a melting point of 66 to 70 °C. The compound `O=C(O)c1ccc(-c2nc(-c3cccc(Oc4ccccc4)c3)no2)cc1` gave a melting point of 292 to 293 °C.

As for `CCC1(C)CC(O)CC(C)(C)N1OC(C)(C)C#N` (stereo not drawn), the melting point was 48 to 60 °C.

Take `O=C(c1cc2cc(OCCNC[C@H](O)COc3ccccc3)ccc2[nH]1)N1CCCC1`: the melting point lay within 110 to 115 °C.

Regarding `COc1ccc(C(=O)NC[C@@H](C(=O)NO)N2CCN(S(C)(=O)=O)CC2)cc1`, the melting point came out at 158 °C. In turn, `O=C(NCc1ccccc1)c1ccnc(N2CCN(CC3CC3)C2=O)c1` showed a melting point of 121 to 123 °C. `CNC(=O)n1cc(C(N)=O)nc1C(C)(C)C` registered a melting point of 145 to 147 °C. In turn, `COc1cc(OC)c2ncn(/C=C/C(=O)O)c(=O)c2c1` had a melting point of 305 to 307 °C.

Compound `CC(C)(c1ccc(Oc2cccc([N+](=O)[O-])c2)cc1)c1ccc(Oc2cccc([N+](=O)[O-])c2)cc1` returned a melting point of 111 to 113 °C.

On to `O=c1ccc2cc(I)ccc2[nH]1`, for which the melting point was found to be 261 °C.

As to `Cc1cc2nc(C)c(S(=O)Cc3ccccc3N(C)C)nc2cc1C` (stereo not drawn), the melting point lay in the range of 83 to 88 °C. `Cc1cnc2c(c1)CCCC2Cl` (stereo not drawn) showed a melting point of 177 °C. Take `CCOC(=O)c1c(CC(=O)O)n(-c2ccc(OC(F)(F)F)cc2)c2ccc(Oc3ccc(CCl)cn3)cc12`: the melting point was in the range of 168 to 170 °C. For `CCOC(=O)c1sc(N)nc1C(C)C` the value was 174 to 178 °C; for `CCOC(=O)C(C)c1ccc(-c2cn3ccccc3n2)cc1` (stereo not drawn), 110 to 112 °C; for `CC12CCC(OS(=O)(=O)C(F)(F)F)=CC1=CCC1C2CCC2(C)C(C(=O)O)CCC12` (stereo not drawn), 140 to 150 °C. The figure for `CCCC(Oc1cccc(-c2noc(C)n2)c1)C(=O)O` (stereo not drawn) is 98 to 100 °C; for `COC(=O)C(COc1ccc(Cl)cc1C#N)Oc1ccccc1Cl` (stereo not drawn) it is 105 °C. In turn, `NCCOC(=C1C2CC3CC(C2)CC1C3)c1cccc(O)c1` gave a melting point of 55 °C. Consider `CN1CCN(CCCNc2sc(-c3cc[nH]n3)c3c2C(=O)CC(C)(C)C3)CC1`, for which the melting point lay within 160 to 163 °C.

Regarding `Cn1cc(C(=O)O)c(=O)c2cc(F)c(F)c(F)c21`, the melting point was in the range of 255 to 258 °C. As to `Cn1cc(-c2ccccc2)c(=O)c(-c2cc(Cl)ccc2Cl)c1`, the melting point is 156 °C. In turn, `CONC(=O)c1[nH]c(C)c(-c2nc3ccc(Oc4ccccc4)cc3[nH]2)c1C` returned a melting point of 166 to 168 °C.

`CC(C)(C)c1ccc(OC(Cc2ccc(OCCNC(=O)c3ccc(-c4ccccn4)cc3)cc2)C(=O)O)cc1` (stereo not drawn): the melting point lay within 94 to 96 °C. The figure for `Cn1c(C(F)(F)F)cc(=O)n(-c2nc(Cl)c(C#N)cc2F)c1=O` is 146 to 148 °C; for `O=C1CCCc2nc3ccccc3c(NCc3ccccc3Cl)c21` it is 150 to 161 °C. On to `O=C(O)c1conc1-c1ccccc1`, for which the melting point was in the range of 163 to 164 °C.

The compound `CC1(CC(=O)N2CCC([C@H]3c4ncc(Br)cc4CCc4cc(Cl)cc(Br)c43)CC2)C=CN(S(C)(=O)=O)C=C1` registered a melting point of 105 to 109 °C.

`Cc1c(Cc2cccnc2)sc2ccc(C(N)=O)cc12` gave a melting point of 194 to 195 °C. For `Cc1c(C=O)c2cc(Br)ccc2n1-c1ccc(O)cc1` the value was over 250 °C; for `COC(=O)C(=CN(C)C)N(C)c1cc(-c2ccc(Cl)c(Cl)c2)n(C)n1`, 113 to 114 °C; for `CONC(=O)Nc1ccc(-c2sc3c(c2CN(C)C(C)c2ccccn2)c(=O)n(-c2ccccc2)c(=O)n3Cc2c(F)cccc2F)cc1` (stereo not drawn), 146 to 148 °C. With `CS(=O)(=O)c1ccc(C(CC2CCCC2)C(=O)Nc2ccccn2)cc1[N+](=O)[O-]` (stereo not drawn), the melting point lay within 92 to 95 °C. `O=[N+]([O-])C=C(NCCCCc1nc[nH]c1Br)NCCCCc1nc[nH]c1Br`: the melting point was in the range of 198 to 200 °C. `CCCCc1nc(SC)c(C(C)=O)n1Cc1ccc(-c2ccccc2S(=O)(=O)NC(=O)NCCC)cc1` gave a melting point of 176 to 177 °C. `Cc1ccsc1C(C)N(O)C(N)=O` (stereo not drawn) displayed a melting point of 131 °C.

`O=S(=O)(c1ccc(O)cc1)N1c2ccccc2-c2ccccc2C1c1ccccc1` (stereo not drawn): the melting point was 210 to 212 °C. The compound `CCOC(=O)c1oc2cccc(OC)c2c1C` came in with a melting point of 67 to 69 °C.

The compound `O=C(O)CCc1cn(Cc2ccc(OCc3ccncc3)cc2)cc1-c1ccccc1` displayed a melting point of 124 to 125 °C. With `CCCN1C(=O)C2CC2(c2ccc(N)cc2)C1=O` (stereo not drawn), the melting point was found to be 97 °C.

For `COc1cc2c(c(-c3ccccc3F)c1)OC(CN)C2` (stereo not drawn), the melting point is over 250 °C. Regarding `CC(C)CN1C(=O)C2=C3SC(S(N)(=O)=O)=CC1CC(C2)S3(=O)=O` (stereo not drawn), the melting point was in the range of 239 to 241 °C. For `Cc1nccc(N2CCC(O)(C(=O)N3CCN(C(=O)c4ccc(Br)cc4)CC3)CC2)n1` the value was 114 to 117 °C; for `CC[C@H](c1ccc(C(F)(F)F)cc1)N(Cc1ccc(C(=O)O)cc1)S(=O)(=O)c1ccc(Cl)cc1`, 105 to 107 °C. `CS(=O)(=O)OCc1cc(-c2ccc3occc3c2)nn(Cc2ccc(F)cc2)c1=O` returned a melting point of 162 to 165 °C. The compound `CC(=O)N1CCc2c(sc3nc(CN4C(=O)CCC4=O)c(Cl)c(-c4ccc(O)cc4)c23)C1` came in with a melting point of 300 °C. Turning to `O=C([C@@H](Cc1ccc(Cl)cc1)NC1CCCCC1)N1CCC(Cn2cncn2)(C2CCCCC2)CC1`, the melting point came to 60 °C.

`CC(n1cncn1)C(O)(COc1ccc(Cl)cc1)C(C)(C)C` (stereo not drawn) came in with a melting point of 80 to 104 °C. For `O=C1c2ccccc2C(=O)N1C[C@H]1COc2ccc(Cl)cc2O1`, the melting point was in the range of 174 to 176 °C. For `COc1ccc2c3c1c(C)c(-c1ccc(O)cc1)n3CC(CCN1CCN(c3cc(C)ccn3)CC1)O2` (stereo not drawn) the value was 193 to 195 °C; for `Cc1cnc2c(C#N)c(-c3ccc(S(=O)(=O)NC4(C(F)(F)F)CC4)cn3)n(C3CCCC3)c2c1`, 249 to 251 °C.
